Target: T1, human amylin (h-amylin) (Homo sapiens, UniProt P10997)
T1 construct: gene IAPP; synthetic 37 residue polypeptide with a disulfide bridge connecting Cys-2 and Cys-7 and an amidated C-terminus; measured as amyloid fibrils
T1 sequence (P10997 34-70): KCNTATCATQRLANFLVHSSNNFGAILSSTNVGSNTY
Test: co-sedimentation of BBG with h-amylin amyloid fibrils (supernatant absorbance at […] nm); supported by TEM/AFM of inhibited and remodeled fibrils and loss of thioflavin-T signal
Type: binding
Description: The result is consistent with binding of BBG to h-amylin amyloid fibers

SMILES: CCOc1ccc(Nc2ccc(/C(=C3C=C/C(=[N+](/CC)Cc4cccc(S(=O)(=O)[O-])c4)C=C/3C)c3ccc(N(CC)Cc4cccc(S(=O)(=O)O)c4)cc3C)cc2)cc1 [BBG, Sodium;3-[[4-[(E)-[4-(4-ethoxyanilino)phenyl]-[4-[ethyl-[(3-sulfonatophenyl)methyl]azaniumylidene]-2-methylcyclohexa-2,5-dien-1-ylidene]methyl]-N-ethyl-3-methylanilino]methyl]benzenesulfonate]
- co-sedimentation of BBG with h-amylin amyloid fibrils (supernatant absorbance at): significant BBG pellets with the fiber. The result is consistent with binding of BBG to h-amylin amyloid fibers

Source: publication PMC6690547, “The triphenylmethane dye brilliant blue G is only moderately effective at inhibiting amyloid formation by human amylin or at disaggregating amylin amyloid fibrils, but interferes with amyloid assays; Implications for inhibitor design” (PLoS ONE, 2019)
